These are literature values, as cited in patent US10603329B2 (INDENA S.P.A., priority 2006, dated 2020).

The subject of this series is cancer cells. As to conditions: in vitro; read-out: IC50, growth of cancer cells.

`COc1cc(C=CC(=O)CC(=O)C=Cc2ccc(O)c(OC)c2)ccc1O` [curcumin, 1,7-bis(4-hydroxyl-3-methoxyphenyl)-1,6-heptadiene-3,5-dione]: the half-inhibitory concentration (IC50) was 20 to 75 µM.

What is called IC50 is the concentration that inhibits the measured activity by half.
